Measurements as given in PMC12409580, “Modulating Receptor Activity, Immune Response, and Kinetic Solubility: The Impact of Linker Chemistry in Conjugated NOD2/TLR4 Agonists” (ACS Omega, 2025).
Converted amounts (≈) assume the structure as drawn. “Also recorded” adds a separate entry of the source. Marks after values point to notes of the source that are not given here.

Key:
NOD2 = NOD2 (Homo sapiens, UniProt Q9HC29); assay: NOD2 NF-κB SEAP reporter assay in HEK-Blue hNOD2 cells
human PBMCs = conditions: 1 μM, 18 h
TLR4 = TLR4 (Homo sapiens, UniProt O00206+Q9Y6Y9); assay: TLR4 NF-κB SEAP reporter assay in HEK-Blue hTLR4 cells
TLR4, sequence (O00206 24-839): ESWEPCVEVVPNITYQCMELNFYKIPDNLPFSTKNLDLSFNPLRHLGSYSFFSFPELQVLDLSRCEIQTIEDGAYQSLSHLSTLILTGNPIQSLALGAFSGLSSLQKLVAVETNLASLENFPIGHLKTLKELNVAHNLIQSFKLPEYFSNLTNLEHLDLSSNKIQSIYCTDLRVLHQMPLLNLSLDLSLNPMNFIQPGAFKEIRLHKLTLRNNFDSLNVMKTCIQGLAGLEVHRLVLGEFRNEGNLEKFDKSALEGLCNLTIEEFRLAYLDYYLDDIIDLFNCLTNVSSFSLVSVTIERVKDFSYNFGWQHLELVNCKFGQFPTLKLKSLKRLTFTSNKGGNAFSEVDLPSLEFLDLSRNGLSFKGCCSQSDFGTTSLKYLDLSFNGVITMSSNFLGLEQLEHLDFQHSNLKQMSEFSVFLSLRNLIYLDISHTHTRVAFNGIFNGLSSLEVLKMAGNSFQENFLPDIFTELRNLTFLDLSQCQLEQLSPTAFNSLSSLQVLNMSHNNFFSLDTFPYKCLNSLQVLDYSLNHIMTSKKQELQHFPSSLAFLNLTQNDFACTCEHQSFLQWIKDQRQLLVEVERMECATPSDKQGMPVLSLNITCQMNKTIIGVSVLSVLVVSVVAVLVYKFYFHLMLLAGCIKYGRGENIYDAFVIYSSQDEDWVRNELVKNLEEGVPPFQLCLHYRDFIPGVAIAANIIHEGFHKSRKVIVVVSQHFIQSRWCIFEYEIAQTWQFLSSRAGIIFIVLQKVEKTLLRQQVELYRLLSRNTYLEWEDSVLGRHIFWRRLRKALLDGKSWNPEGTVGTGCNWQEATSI
TLR4, sequence (Q9Y6Y9 17-160 limits assumed): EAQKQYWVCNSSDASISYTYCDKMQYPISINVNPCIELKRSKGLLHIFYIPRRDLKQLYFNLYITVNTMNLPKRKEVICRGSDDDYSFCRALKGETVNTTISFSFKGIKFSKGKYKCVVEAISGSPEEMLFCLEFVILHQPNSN

[1] = Kinetic solubility in PBS (HPLC solubility assay); conditions: PBS, aqueous buffer, kinetic from dmso stock
[2] = set-up: method as in previous studies; conditions: kinetic solubility; ref previous studies; cited from earlier work
[3] = set-up: method as in previously reported; conditions: ref previously reported; cited from earlier work
[4] = 10 μM, 18 h, NF-κB transcriptional activity (SEAP) relative to 0.1% DMSO
[5] = Solubility sample 1, Tables S1–S3, replicate 1
[6] = Solubility sample 2, Tables S1–S3, replicate 2
[7] = solubility in PBS, kinetic solubility, HPLC solubility assay

NOD2, sequence (Q9HC29 whole entry): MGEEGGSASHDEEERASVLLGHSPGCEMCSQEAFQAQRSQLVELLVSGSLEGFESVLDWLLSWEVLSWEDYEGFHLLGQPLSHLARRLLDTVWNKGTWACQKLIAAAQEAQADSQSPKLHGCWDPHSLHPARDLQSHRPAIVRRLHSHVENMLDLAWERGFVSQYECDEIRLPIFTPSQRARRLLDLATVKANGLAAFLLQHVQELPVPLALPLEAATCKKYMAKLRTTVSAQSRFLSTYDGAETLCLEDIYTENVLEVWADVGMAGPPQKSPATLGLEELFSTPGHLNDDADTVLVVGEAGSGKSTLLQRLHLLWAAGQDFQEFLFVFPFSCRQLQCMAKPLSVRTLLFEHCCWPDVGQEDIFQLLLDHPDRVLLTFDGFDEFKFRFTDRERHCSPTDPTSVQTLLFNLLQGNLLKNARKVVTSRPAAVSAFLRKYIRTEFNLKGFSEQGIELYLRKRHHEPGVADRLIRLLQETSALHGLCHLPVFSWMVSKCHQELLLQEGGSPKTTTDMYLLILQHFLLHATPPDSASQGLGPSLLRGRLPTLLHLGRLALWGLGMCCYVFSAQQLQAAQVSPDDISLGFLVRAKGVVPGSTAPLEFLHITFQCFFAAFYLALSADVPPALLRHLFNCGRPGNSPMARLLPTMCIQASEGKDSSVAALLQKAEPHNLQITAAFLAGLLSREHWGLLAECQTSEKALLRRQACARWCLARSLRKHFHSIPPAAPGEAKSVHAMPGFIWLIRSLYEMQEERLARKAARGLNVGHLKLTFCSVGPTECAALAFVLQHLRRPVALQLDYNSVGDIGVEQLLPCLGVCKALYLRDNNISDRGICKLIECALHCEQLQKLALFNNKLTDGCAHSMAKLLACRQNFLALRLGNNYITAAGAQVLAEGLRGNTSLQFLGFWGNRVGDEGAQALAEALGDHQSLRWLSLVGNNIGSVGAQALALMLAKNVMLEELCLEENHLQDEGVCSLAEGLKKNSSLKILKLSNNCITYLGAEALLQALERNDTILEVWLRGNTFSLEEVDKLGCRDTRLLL

| Compound | NOD2 activation at 10 μM, fold increase (NOD2; [4]) [fold increase] | NOD2 agonist activity (NOD2; compared with NOD2 agonist 3 and MDP (4 μM)) | overall cytokine production (human PBMCs) | production of IL-6, IL-10, TNF-α, and IFN-γ (human PBMCs) | TLR4 activation at 10 μM, fold increase (TLR4; [4]) [fold increase] | maximum TLR4 activation (TLR4; HEK-Blue hTLR4, 21 at 10 μM) [fold] | concentration at which compound activated TLR4 (TLR4; dose-response 0.5–10 μM (17–21) or 1–100 μM (27–31)) [µM] | solubility [1, 5] [µM] | solubility [1, 6] [µM] | solubility [1, 7] [µM] | solubility in PBS [2] | NOD2 activation, fold increase (NOD2; 2 μM, 18 h, NF-κB transcriptional activity (SEAP) relative to 0.1% DMSO) | immunostimulatory activity [3] |
| --- | --- | --- | --- | --- | --- | --- | --- | --- | --- | --- | --- | --- | --- |
| CCOC(=O)[C@@H](CCC(=O)N1CCC(CN2CCN(C(=O)Cc3ccc(C(C(=O)NC4CCCC4)N(C(=O)c4cc(-c5ccccc5)n(-c5ccccc5)n4)c4ccc5c(c4)CCC5)cc3)CC2)CC1)NC(=O)[C@@H](NC(=O)CNC(=O)/C=C/c1ccc(O)c(OC)c1)C(C)C (stereo partly drawn) [Compound 21, Ethyl (2R)-5-(4-((4-(2-(4-(2-(Cyclopentylamino)-1-(N-(2,3-dihydro-1H-inden-5-yl)-1,5-diphenyl-1H-pyrazole-3-carboxamido)-2-oxoethyl)phenyl)acetyl)piperazin-1-yl)methyl)piperidin-1-yl)-2-((S)-2-(2-((E)-3-(4-hydroxy-3-methoxyphenyl)acrylamido)acetamido)-3-methylbutanamido)-5-oxopentanoate] | 3.31 | comparable efficiency to MDP | most potent immunomodulator in the series | moderately enhanced | 5.30 | 5.30 | 0.5 | 0.34 (≈ 0.44 µg/mL) | 0.32 (≈ 0.414 µg/mL) | 0.33 (≈ 0.427 µg/mL) | – | – | – |
| CCOC(=O)C(CCC(=O)O)NC(=O)C(NC(=O)CNC(=O)C=Cc1ccc(O)c(OC)c1)C(C)C (stereo not shown) [Compound 3, reference compound] | – | – | – | – | – | – | – | – | – | – | 414.8 ^c μM | 3.06 ^d fold increase | – |
| COc1cc(/C=C/C(=O)NCC(=O)N[C@H](C(=O)N[C@H](CCC(=O)OC2CCCC2)C(=O)OC2CCCC2)C(C)C)ccc1OC(=O)CCCCCNC(=O)CSc1nc2c([nH]c3ccccc32)c(=O)n1-c1ccccc1 [Compound 2, reference compound] | – | – | – | – | – | – | – | 0.26 (≈ 0.276 µg/mL) | 0.44 (≈ 0.467 µg/mL) | 0.35 (≈ 0.372 µg/mL) | – | – | inactivity; also recorded: lacked immunostimulatory activity |
